Measurements from the pKa sets of Baltruschat and Czodrowski (2020).

Conditions: acidic group

With Nc1n[nH]cc1[N+](=O)[O-] as the molecule, how does the pKa read?
Its pKa is 9.73.

With Cc1ccc(C(=O)O)cc1Br as the molecule, how does the pKa read?
The pKa was 3.96.

Which pKa does the source give for CC/C=C/Cc1[nH+]ccn1[C@H](C(=O)O)C(C)(C)S here?
The pKa was 2.

With [O-]c1cc(O)c2ccccc2[nH+]1 as the molecule, how does the pKa read?
The pKa was 5.86.

With Cc1cc(/N=N/c2nc3ccccc3s2)c2cccnc2c1O as the molecule, how does the pKa read?
Its pKa is 7.5.

With C[C@H]1CC[C@H]2[C@H](C)CC[C@@H](C(=O)O)[NH+]2C1 as the molecule, how does the pKa read?
Its pKa is 2.

For C[N+](C)(O)c1ccccc1, which pKa is on record?
The pKa was 4.21.

For CC(Br)C(=O)O (stereo not given), which pKa is on record?
The pKa was 2.97.

Which pKa does the source give for c1ccc(CNc2nnc(-c3ccccc3)s2)cc1 here?
The pKa was 11.5.

For Cc1ccc(C(=S)Nc2ccc(Cl)cc2)cc1, which pKa is on record?
The pKa was 10.8.

Which pKa does the source give for CCOC(=O)COc1ccc(C(=O)c2ccc(O)c(C[NH3+])c2)c(Cl)c1Cl here?
The pKa was 6.38.

Which pKa does the source give for Nc1ccc(S(=O)(=O)Nc2ccccn2)cc1 here?
The pKa was 8.51.

Which pKa does the source give for Cc1ccnc2c(O)cccc12 here?
The pKa was 8.44.

For NC(=O)C(N)Cc1ccccc1 (stereo not given), which pKa is on record?
The pKa was 7.33.

Which pKa does the source give for Cc1ccc(S(=O)O)cc1 here?
The pKa was 1.82.

For CCC(=O)OO, which pKa is on record?
The pKa was 8.1.

Which pKa does the source give for CC(C)CC([NH3+])C(=O)O (stereo not given) here?
The pKa was 2.46.

With [O-]c1ccc(/C=N/O)cc1 as the molecule, how does the pKa read?
Its pKa is 12.

With Cc1[nH]c2ccccc2c1C(=O)O as the molecule, how does the pKa read?
The pKa was 5.89.

Which pKa does the source give for COc1ccccc1/C=C/C(=O)O here?
Its pKa is 4.57.

Which pKa does the source give for CCC[Si](C)(CCC)CC(=O)O here?
Its pKa is 5.65.

For Sc1nc2[nH]cnc2c[nH+]1, which pKa is on record?
Its pKa is 0.5.

For CC(C)c1ccc(Br)c(O)c(=O)c1, which pKa is on record?
The pKa was 6.28.

For CNC(=O)CS, which pKa is on record?
Its pKa is 8.05.

With CCOC(=O)Cc1nc2ccccc2[nH]1 as the molecule, how does the pKa read?
Its pKa is 13.1.

Which pKa does the source give for CO/C(C)=C\C(=O)O here?
Its pKa is 5.81.

With Cc1cc(OS(=O)(=O)[O-])c2oc(-c3cc4ccc(O)cc4oc3=O)nc2c1 as the molecule, how does the pKa read?
Its pKa is 6.8.

For O=C1CC(=O)C(=O)C1, which pKa is on record?
Its pKa is 3.

With Cc1ccc(O)cc1Cc1cc([N+](=O)[O-])ccc1O as the molecule, how does the pKa read?
The pKa was 7.03.

For Cc1cc(C)c(/N=N/c2c(C)cc(O)cc2C)c(C)c1, which pKa is on record?
The pKa was 9.1.

For Oc1cccc(I)c1, which pKa is on record?
Its pKa is 9.02.

Which pKa does the source give for O=C(O)c1ccccc1O[C@H]1O[C@@H](CO)[C@H](O)[C@@H](O)[C@@H]1O here?
Its pKa is 3.6.

With Nc1ccc(S(=O)(=O)Nc2cncnc2)cc1 as the molecule, how does the pKa read?
Its pKa is 6.62.

For NNC(=O)CF, which pKa is on record?
Its pKa is 11.3.

For Cc1cccc(O)c1C(=O)Oc1ccccc1, which pKa is on record?
Its pKa is 8.63.

Which pKa does the source give for CN(C)c1nnn[nH]1 here?
The pKa was 5.92.

With NC(=O)c1ccccc1O as the molecule, how does the pKa read?
The pKa was 8.61.

With CO[C@H]1C[C@@H]1C(=O)O as the molecule, how does the pKa read?
Its pKa is 4.47.

With O=C(O)[C@@H]1O[C@H](Oc2ccc(I)cc2)[C@@H](O)[C@H](O)[C@H]1O as the molecule, how does the pKa read?
The pKa was 3.28.

With Cc1nc2c(O)ccc(O)c2n1C as the molecule, how does the pKa read?
Its pKa is 9.75.

Which pKa does the source give for CCC(C)C[C@H]([NH3+])C(=O)O (stereo not given in full) here?
The pKa was 3.25.

For O=S(=O)(Nc1ncccn1)c1ccc(O)cc1, which pKa is on record?
Its pKa is 6.37.

With N#Cc1cccc(C(=O)O)c1 as the molecule, how does the pKa read?
Its pKa is 3.6.

With O=[N+]([O-])c1ccc(O)c(C[NH+]2CCOCCOCCOCCOCCOCC2)c1 as the molecule, how does the pKa read?
Its pKa is 5.77.

With CN1CC(=O)NC1=O as the molecule, how does the pKa read?
Its pKa is 11.4.

With Cc1cc(O)n(-c2ccccc2)n1 as the molecule, how does the pKa read?
The pKa was 11.3.

Which pKa does the source give for Cn1nc(/N=N/O)nc1N1CCCCC1 here?
Its pKa is 5.46.

For Cc1cc(C)c(O)c(C)c1, which pKa is on record?
The pKa was 10.9.

With c1nc(NC2CCCCC2)c2[nH]cnc2n1 as the molecule, how does the pKa read?
Its pKa is 10.2.

With O=C1NC(=O)C2(CCOc3ccc(F)cc32)N1 (stereo not given) as the molecule, how does the pKa read?
The pKa was 8.3.

With O=C1CCCC(=O)C1 as the molecule, how does the pKa read?
The pKa was 5.26.

With NC(=O)CS(N)(=O)=O as the molecule, how does the pKa read?
The pKa was 9.7.

For O=C(O)[C@H]1CCC[C@H](O)C1, which pKa is on record?
The pKa was 4.82.

Same assay, conditions: basic group

With Cc1cc(C)[n+](C)c([S-])n1 as the molecule, how does the pKa read?
Its pKa is 3.15.

Which pKa does the source give for c1ncc(Cc2c[nH+]c[nH]2)[nH]1 here?
Its pKa is 5.69.

For CC[NH+](CC)CC(C)Nc1c2ccc(Cl)cc2nc2ccc(OC)cc12 (stereo not given), which pKa is on record?
Its pKa is 7.15.

With Cc1cccc(C)c1NC(=O)CNCC(C)C as the molecule, how does the pKa read?
Its pKa is 7.83.

For C[C@@H]([C@H](O)c1ccccc1)N(C)C, which pKa is on record?
Its pKa is 9.22.

Which pKa does the source give for Cc1ccc(-c2cnc(-c3ccc(Br)cc3)o2)cc1 here?
The pKa was 0.56.

With Cc1cccnn1 as the molecule, how does the pKa read?
The pKa was 3.46.

For c1cc(N2CCCC2)cc[nH+]1, which pKa is on record?
Its pKa is -0.53.

With Clc1ccc(-c2cnc(-c3ccccc3)o2)cc1 as the molecule, how does the pKa read?
The pKa was 0.7.

Which pKa does the source give for CNC(=O)c1ccccn1 here?
The pKa was 2.4.

For COc1cc2c(cc1OC)[C@]13CCN4CC5=CCO[C@@H]6CC(=O)N2[C@@H]1[C@@H]6[C@@H]5C[C@@H]43, which pKa is on record?
Its pKa is 5.86.

Which pKa does the source give for CCOc1ccc2[nH]cnc2c1 here?
The pKa was 5.57.

Which pKa does the source give for N=C(N)Nc1ccccc1 here?
Its pKa is 10.8.

For CCc1c(C)nnc(C)c1C, which pKa is on record?
The pKa was 5.17.

Which pKa does the source give for [O-]c1ccncc1 here?
The pKa was 11.1.

For C[NH+](C)CCCCN1C=Nc2cccc3cccc1c23, which pKa is on record?
The pKa was 5.3.

With Nc1ccc(S(=O)(=O)Nc2ccccn2)cc1 as the molecule, how does the pKa read?
The pKa was 2.58.

With c1ccc2c(CC3=NCCN3)cccc2c1 as the molecule, how does the pKa read?
The pKa was 10.3.

With CC(C)(C)N1C2CCCC21 (stereo not given) as the molecule, how does the pKa read?
Its pKa is 9.22.

For C1CNC[NH2+]C1, which pKa is on record?
Its pKa is 4.71.

Which pKa does the source give for CC(=O)c1ccccc1N here?
Its pKa is 2.31.

Which pKa does the source give for CCCN(CCC)c1ccccc1 here?
Its pKa is 6.13.

With CN(c1ccccc1)C1CCCC1 as the molecule, how does the pKa read?
The pKa was 6.71.

For C[NH2+]CC/C(N)=N/O, which pKa is on record?
The pKa was 3.6.

Which pKa does the source give for CN(C)CCN(C)CC[NH+](C)C here?
Its pKa is 8.63.

Which pKa does the source give for CCSC(=O)c1ccc(OC)cc1 here?
The pKa was -3.77.

For O=c1cccccc1, which pKa is on record?
Its pKa is -0.82.

With c1ccc(CNc2nc[nH+]c3[nH]cnc23)cc1 as the molecule, how does the pKa read?
Its pKa is -1.

For CN(C)c1cc[nH+]cc1, which pKa is on record?
The pKa was -7.78.

For C1=C(c2ccccc2)C2CCN1CC2, which pKa is on record?
The pKa was 9.1.

For c1cc(N2CCOCC2)ccc1N1CCOCC1, which pKa is on record?
The pKa was 4.2.

With CCCCCCCCCCCCCCCN as the molecule, how does the pKa read?
The pKa was 10.6.

For COc1ccc(N)cc1, which pKa is on record?
Its pKa is 5.35.

Which pKa does the source give for Cc1cnc2c(ccc3cccnc32)c1 here?
The pKa was 5.

For Cc1ccc(C(C)C)c(OCCN(C)C)c1, which pKa is on record?
The pKa was 8.66.

With CC[NH+](CC)CCNc1nc(C)nc(Nc2ccc(Cl)cc2)n1 as the molecule, how does the pKa read?
Its pKa is 4.02.

For CCCCCCCCCCCN, which pKa is on record?
Its pKa is 10.6.

Which pKa does the source give for Cc1ccc(N)cc1 here?
The pKa was 5.04.

With Cc1ccc(N)cc1C as the molecule, how does the pKa read?
Its pKa is 4.94.

With CNC as the molecule, how does the pKa read?
Its pKa is 11.

For Nc1c(Br)cccc1Br, which pKa is on record?
The pKa was 0.36.

With CNC(C)CC1CCCCC1 (stereo not given) as the molecule, how does the pKa read?
The pKa was 10.5.

With CCOC(=O)Cc1nc2ccccc2[nH]1 as the molecule, how does the pKa read?
Its pKa is 5.7.

With Cc1nc2cc(N)ccc2[nH]1 as the molecule, how does the pKa read?
The pKa was 6.95.

For O=C([O-])[C@@H]1CSCN1, which pKa is on record?
Its pKa is 6.14.

With CCN(CC)CC(=O)Nc1ccccc1 as the molecule, how does the pKa read?
The pKa was 8.

Which pKa does the source give for NC1CCc2ccccc2C1 (stereo not given) here?
Its pKa is 9.97.

For CCCN(C)c1ccccc1, which pKa is on record?
The pKa was 5.67.

Which pKa does the source give for CCN(CC)N(C)C here?
Its pKa is 6.88.

For CCOCCn1c(CN2CC[NH+](CCCCn3cccn3)CC2)nc2ccccc21, which pKa is on record?
Its pKa is 4.8.

With c1ccc(C2=Nc3ccccc3CO2)cc1 as the molecule, how does the pKa read?
Its pKa is 3.48.

For CC(C)CNCC(=O)c1ccc(O)cc1, which pKa is on record?
Its pKa is 7.74.

Which pKa does the source give for Nc1ccc(S(=O)(=O)Nc2cncnc2)cc1 here?
The pKa was 1.9.

For COc1ccc(CC(C)N)cc1 (stereo not given), which pKa is on record?
Its pKa is 9.53.

With CC(=O)NNC1CCN(C)CC1 as the molecule, how does the pKa read?
The pKa was 8.7.

For c1cc([C@@H]2CCCN2)nc([C@@H]2CCC[NH2+]2)c1, which pKa is on record?
Its pKa is 9.39.

For C/C(=C\C(C)=N\c1ccccc1)Nc1ccccc1, which pKa is on record?
The pKa was 7.22.

With CCOc1ccc2nc(/C=C/c3ccccc3)cc(N)c2c1 as the molecule, how does the pKa read?
Its pKa is 9.5.

For c1ccc2nc3ccccc3cc2c1, which pKa is on record?
Its pKa is 5.48.

Which pKa does the source give for Cc1nc2c(O)ccc(O)c2n1C here?
Its pKa is 6.47.

With CN(C)c1ccc2cc3ccc(N(C)C)cc3[nH+]c2c1 as the molecule, how does the pKa read?
The pKa was 0.4.

Which pKa does the source give for CCN(CC)CC(=O)Nc1ccccc1C here?
The pKa was 7.95.

With Cc1nc2[nH]c(=O)[nH]c(=O)c2[nH]1 as the molecule, how does the pKa read?
Its pKa is 3.1.

Which pKa does the source give for O=C1C=CN2C[C@@H]3C[C@@H](CN4CCCC[C@H]34)[C@@H]2C1 here?
Its pKa is 9.25.

For CCN1CCCCC1C (stereo not given), which pKa is on record?
Its pKa is 10.7.

Which pKa does the source give for Cc1cc(O)n(-c2ccccc2)n1 here?
The pKa was 1.07.

Which pKa does the source give for Cc1[nH]c(C)c(C)c1C here?
Its pKa is 3.77.

For c1nc(NC2CCCCC2)c2[nH]cnc2n1, which pKa is on record?
The pKa was 4.2.

For C=CCN(CC1CO1)CC1CO1 (stereo not given), which pKa is on record?
The pKa was 6.16.

With Cc1ccc(N=C2C=CC(=N)C=C2)c(N)c1 as the molecule, how does the pKa read?
The pKa was 4.2.

With Cc1ccc([N+](=O)[O-])c2c(NCCC[NH+](C)C)ccnc12 as the molecule, how does the pKa read?
Its pKa is 6.84.

Which pKa does the source give for COC(=O)c1cc(Br)c(=O)n(N)c1 here?
Its pKa is 2.4.
